In publication PMC2217384 (The Journal of General Physiology, 2003):

Target: T1, P2X1 receptor (Rattus norvegicus, UniProt P47824)
T1 sequence (P47824 1-399): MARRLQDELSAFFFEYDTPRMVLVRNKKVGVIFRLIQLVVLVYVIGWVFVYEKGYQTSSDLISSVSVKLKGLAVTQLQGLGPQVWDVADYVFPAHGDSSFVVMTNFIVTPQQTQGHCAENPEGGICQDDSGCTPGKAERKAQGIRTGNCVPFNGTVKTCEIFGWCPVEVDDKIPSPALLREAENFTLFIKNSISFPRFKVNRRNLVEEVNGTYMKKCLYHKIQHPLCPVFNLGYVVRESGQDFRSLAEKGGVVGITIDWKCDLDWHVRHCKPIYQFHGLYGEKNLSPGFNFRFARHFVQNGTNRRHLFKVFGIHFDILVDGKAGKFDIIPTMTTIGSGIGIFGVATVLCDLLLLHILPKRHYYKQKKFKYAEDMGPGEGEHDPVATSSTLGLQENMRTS
Assay: two-electrode voltage clamp in Xenopus oocytes
Assay type: cell-based

## Nc1ncnc2c1ncn2[C@@H]1O[C@H](COP(=O)(O)OP(=O)(O)OP(=O)(O)O)[C@@H](O)[C@H]1O [ATP]
  EC50: 700 ± 60 nM
